Experimental data taken from patent US20250361271A1, “PEPTIDE AGONIST” (THE UNIVERSITY OF BIRMINGHAM, priority 2022, published 2025).
Where a SMILES comes first, the peptide text is derived from it. [ ]: non-standard residue; d: D form. d(pGlu) = O=C1CC[C@H](C(=O)O)N1; pGlu = O=C1CC[C@@H](C(=O)O)N1; Aib = CC(C)(N)C(=O)O

Experiments:
[1] = format: in vitro ADME, pig
Procedure: Pig eyes were treated with either […] or one of TVS (reverse sequence of SVT comprising amino acids in D-isomeric forms), […] and QGA, derived from the […] sequence. The eyes were then incubated in a dark humified chamber. The eyes were dissected, and the vitreous humour and retina were harvested. The samples were sonicated to break up the tissue and purified using a C18 column. Once purified, the samples were digested and analysed by mass spectrometry.

[2] = test system: PBLs on cytokine stimulated HDBECs; settings: for % Inhibition (3 nM): 3 nM peptide; for % Inhibition (3 nM) / % Inhibition (0.3 nM): inhibition of PBL transmigration (as a percentage of adherent cells); for effectiveness in inhibiting PBL transmigration compared with PEPITEM (% Inhibition at 0.3 and/or 3 nM): PEPITEM 41.90; for % Inhibition (0.3 nM): 0.3 nM peptide
Procedure: Blood samples were obtained from consensual healthy donors and were collected in EDTA tubes (Sigma-Aldrich). […] 5 ml of blood was layered on top of the density gradient, and was centrifuged at 2500 rpm for 45 minutes. […] The PBMCs were washed twice for 7 minutes at 1500 rpm. Peripheral blood lymphocytes (PBLs) were isolated via panning PBMCs onto a culture flask for 30 minutes at 37° C., allowing monocytes to adhere.
HDBECS defrosted at 37° C. in a 25 cm^2 cell culture flask in 10 ml of media were dissociated using EDTA (Sigma-Aldrich) and Trypsin (Gibco) and seeded on 10 wells in a 12-well tissue culture plates (Falcon) and left to adhere at 37° C. After 24 hours, confluent endothelial layers were cytokine stimulated using 100 U/ml TNF-α (Sigma-Aldrich) and 10 ng/ml IFN-γ (Peprotech) for 24 hours at 37° C. The peptide treatment of the 1×10^6 cells/ml PBLs consisted of adding the peptides immediately before use. […] 1×10^6 PBLs were added to each well and incubated at 37° C., allowing PBLs to adhere to migrate across the endothelium. […] Cells were then fixed with 2% glutaraldehyde for 10 minutes and then imaged using phase-contrast microscopy via an inverted bright-field microscope at 20× magnification.
Imaging of the PBL migration assay was carried out using ImagePro 7 software (Media Cybernetics). Surface adherent cells were categorised as being phase-bright, and transmigrated cells were categorised as phase-dark with altered morphology, appearing as being under the endothelial layer. Images were taken at 5 different fields of each well, and an average of counted adherent and migrated PBLs was calculated.
The same methods described for the in vitro transmigration assay and analysis were used, and PBL transmigration was calculated as a percentage of adherent cells. Peptides were added to the PBLs at concentrations ranging from 0.0001-500 ng/ml on the cytokine stimulated HDBECs and the resulting PBL transmigration (as a percentage of adherent cells) was plotted as a function of log10 of the peptide concentration.
The peptides were added at concentration of 20 ng/ml and run alongside untreated PBL (PBL0) and scrambled protein to analyse their effects on adhesion and transmigration.

T1/2 in plasma (mouse) = format: in vitro ADME; settings: for stability compared with PEPITEM: in mouse plasma, human plasma, and or mouse blood; for half-life: mouse, plasma, 1 μM peptide, 37° C.
From the text: Take all measurements in duplicate.

[3] = test system: primary murine calvarial osteoblasts; experiment: Alkaline phosphatase activity, murine osteoblasts; format: cell-based, mouse; settings: 8 days, vs untreated cells, FIG. 5b
Procedure: Skin was removed from around calvaria using forceps, and the calvaria was dissected out and cleaned of any contaminating tissue. Calvaria were added to αMEM media supplemented with 1 mg/ml of collagenase d (Roche, Basel, Switzerland, COLLD-RO). Tubes were then agitated at 37° C. for 10 minutes and the media discarded. αMEM media supplemented with 1 mg/ml of collagenase d was again added to calvaria and shaken at 37° C. for 30 minutes. Media (containing cells) was then removed and kept on ice. The calvaria were then again shaken at 37° C. for 10 minutes in 1.5 ml of αMEM media supplemented with 5 μM EDTA (Sigma-Aldrich, E7889) and the cell containing media transferred to the sample on ice, pooling the cells. […] Cells on ice were then spun down at 300 g for 4 minutes, resuspended in 1 ml of Basal media and counted using a haemocytometer. […] Mineralisation was assessed by quantifying the level of alkaline phosphate (ALP) activity (absorbance at 405 nm) per condition normalized to the absorbance generated by the untreated control (control on the graph). […] The plate was wrapped in foil and left to run for 45 minutes at 37° C. in an incubated shaker (SciQuip; Shropshire, UK) before being quantified using a Synergy HT plate reader (BioTek) with absorbance set at 405 nm.

Procedure for T1/2 in blood (mouse): Store at −20° C. or on ice. • 2) Thaw the blood and spin in a centrifuge at 1500×g for 10 minutes at room temperature. • 3) Prepare stock solution of the peptide at 10 mM in DMSO or PBS and dilute solutions by adding 3 μL of 10 mM stock to 297 μL DMSO or PBS (100 μM stock for a final 1 μM concentration). • 4) Add 550 μL blood to an incubation tube and separately add 4 μL of peptide stock solution to an incubation tube. Warm the incubation tubes (5 minutes, 37° C., with shaking). • 5) After warming, add 396 μL of warmed blood to warmed peptide (time=0). Mix well and shake the tube containing the mixed sample (37° C., 1400×g). • 6) At 2, 5, 15, 30, 45 and 60 minutes after contacting the peptide and blood, collect 40 μL of the sample into pre-prepared quench tubes. • 7) Analyse the sample at each time point by mass spectrometry. Take all measurements in duplicate.
The samples were analysed and the T1/2 values were calculated by XenoGesis. The T1/2 values correspond to the time taken for the concentration of the peptide in the blood or plasma to be reduced by 50%.

Compound | half-life (T1/2 in plasma (mouse)) [h] | % Inhibition (3 nM) [2] [%] | % Inhibition (0.3 nM) [2] [%] | other results
CC(C)[C@@H](NC(=O)[C@H](N)[C@H](C)O)C(=O)N[C@H](CO)C(N)=O (relative stereo) [SEQ ID NO. 11, H-T*V*S*-NH2] | > 3 |  |  | eye tissue in which the peptide was found by mass spectrometry [1]: Retina only; IC50 [2]: 24 pM; stability compared with PEPITEM (T1/2 in plasma (mouse)): at least as stable
CC(=O)N[C@@H](CO)C(=O)N[C@H](C(=O)N[C@H](C(=O)O)[C@@H](C)O)C(C)C [SEQ ID NO. 3, Ac-SVT] (Ac-Ser-Val-Thr-OH) |  | 36.80 |  | 
CC(=O)N[C@@H](CO)C(=O)N[C@H](C(=O)N[C@H](C(N)=O)[C@@H](C)O)C(C)C [SEQ ID NO. 5, Ac-SVT-NH2] (Ac-Ser-Val-Thr-NH2) | 1.98 | 42.50 |  | effectiveness in inhibiting PBL transmigration compared with PEPITEM (% Inhibition at 0.3 and/or 3 nM) [2]: more effective
CC(C)[C@H](NC(=O)[C@@H](N)[C@@H](C)O)C(=O)N[C@H](C(N)=O)[C@@H](C)O [SEQ ID NO. 8, H-TVT-NH2] (H-Thr-Val-Thr-NH2) | 0.283 | 48.19 | 45.47 | effectiveness in inhibiting PBL transmigration compared with PEPITEM (% Inhibition at 0.3 and/or 3 nM) [2]: more effective
CC(C)[C@H](NC(=O)[C@@H](N)CO)C(=O)N[C@@H](CO)C(N)=O [SEQ ID NO. 9, H-SVS-NH2] (H-Ser-Val-Ser-NH2) | 1.72 | 38.10 | 42.51 | effectiveness in inhibiting PBL transmigration compared with PEPITEM (% Inhibition at 0.3 and/or 3 nM) [2]: more effective
COC[C@H](N)C(=O)N[C@H](C(=O)N[C@H](C(N)=O)[C@@H](C)O)C(C)C [SEQ ID NO. 12, H-S(OMe)VT-NH2] (H-Ser(Me)-Val-Thr-NH2) |  | 62.27 | 34.72 | effectiveness in inhibiting PBL transmigration compared with PEPITEM (% Inhibition at 0.3 and/or 3 nM) [2]: more effective
CCCCCCNC(=O)[C@@H](NC(=O)[C@@H](NC(=O)[C@@H](N)CO)C(C)C)[C@@H](C)O [SEQ ID NO. 13, H-SVT-NH-Hexyl] |  | 12.83 | 23.56 | 
CC[C@H](C)[C@H](NC(=O)[C@@H](N)CO)C(=O)N[C@H](C(N)=O)[C@@H](C)O [SEQ ID NO. 14, H-SIT-NH2] (H-Ser-Ile-Thr-NH2) |  | 28.23 | 3.40 | 
CC(C)C[C@H](NC(=O)[C@@H](N)CO)C(=O)N[C@H](C(N)=O)[C@@H](C)O [SEQ ID NO. 15, H-SLT-NH2] (H-Ser-Leu-Thr-NH2) | 0.117 | 20.75 | 46.00 | effectiveness in inhibiting PBL transmigration compared with PEPITEM (% Inhibition at 0.3 and/or 3 nM) [2]: more effective
C[C@@H](O)[C@H](NC(=O)[C@H](Cc1ccccc1)NC(=O)[C@@H](N)CO)C(N)=O [SEQ ID NO. 16, H-SFT-NH2] (H-Ser-Phe-Thr-NH2) |  | 33.33 | 39.78 | 
C[C@@H](O)[C@H](NC(=O)[C@H](Cc1ccc(O)cc1)NC(=O)[C@@H](N)CO)C(N)=O [SEQ ID NO. 18, H-SYT-NH2] (H-Ser-Tyr-Thr-NH2) | 0.283 | 42.83 | 39.18 | effectiveness in inhibiting PBL transmigration compared with PEPITEM (% Inhibition at 0.3 and/or 3 nM) [2]: more effective
CCNC(=O)[C@H](C)NC(=O)CNC(=O)[C@@H]1CCC(=O)N1 [SEQ ID NO. 22, pEGA-NH-Ethyl] ([pGlu]-Gly-Ala-NHEt) | > 3 |  | 35.40 | 
C[C@H](NC(=O)CNC(=O)[C@@H]1CCC(=O)N1)C(N)=O [SEQ ID NO. 23, pEGA-NH2] ([pGlu]-Gly-Ala-NH2) | > 3 |  | 54.50 | IC50 [2]: 3.2 pM; effectiveness in inhibiting PBL transmigration compared with PEPITEM (% Inhibition at 0.3 and/or 3 nM) [2]: more effective; potency at inhibiting the transmigration of T cells compared with PEPITEM (IC50) ([2]; PEPITEM IC50 0.02): more potent
CCNC(=O)[C@H](C)NC(=O)CNC(=O)[C@H](CCC(N)=O)NC(C)=O [SEQ ID NO. 24, Ac-QGA-NH-Ethyl] (Ac-Gln-Gly-Ala-NHEt) |  |  | 50.00 | effectiveness in inhibiting PBL transmigration compared with PEPITEM (% Inhibition at 0.3 and/or 3 nM) [2]: more effective
CC(=O)N[C@@H](CCC(N)=O)C(=O)NCC(=O)NC(C)(C)C(=O)O [SEQ ID NO. 25, Ac-QGAib] (Ac-Gln-Gly-[Aib]-OH) |  |  | 32.00 | 
CC(=O)N[C@H](CCC(N)=O)C(=O)NCC(=O)N[C@H](C)C(N)=O [SEQ ID NO. 26, Ac-Q*GA*-NH2] | > 3 |  |  | IC50 [2]: 18 pM; stability compared with PEPITEM (T1/2 in plasma (mouse)): at least as stable
C[C@@H](NC(=O)CNC(=O)[C@H]1CCC(=O)N1)C(N)=O [SEQ ID NO. 28, pE*GA*-NH2] ([d(pGlu)]-Gly-[dA]-NH2) |  |  |  | half-life (T1/2 in blood (mouse)): 1.17 h
CNC(=O)[C@H](C)NC(=O)CNC(=O)[C@@H]1CCC(=O)N1 [SEQ ID NO. 29, pEGA-NHMe] ([pGlu]-Gly-Ala-NHMe) |  | 43.35 | 40.89 | half-life (T1/2 in blood (mouse); whole blood): 1.62 h
C[C@H](NC(=O)CNC(=O)[C@@H]1CCC(=O)N1)C(=O)N(C)C [SEQ ID NO. 30, pEGA-N(Me)2] ([pGlu]-Gly-Ala-NMe2) |  | 42.65 | 44.70 | half-life (T1/2 in blood (mouse); whole blood): > 3 h
CC(C)[C@H](NC(=O)CNC(=O)[C@@H]1CCC(=O)N1)C(N)=O [SEQ ID NO. 31, pEGV-NH2] ([pGlu]-Gly-Val-NH2) |  | 50.27 | 49.94 | half-life (T1/2 in blood (mouse); whole blood): > 3 h
CC(C)C[C@H](NC(=O)CNC(=O)[C@@H]1CCC(=O)N1)C(N)=O [SEQ ID NO. 32, pEGL-NH2] ([pGlu]-Gly-Leu-NH2) |  | 58.16 | 25.34 | 
NC(=O)[C@H](Cc1ccccc1)NC(=O)CNC(=O)[C@@H]1CCC(=O)N1 [SEQ ID NO. 33, pEGF-NH2] ([pGlu]-Gly-Phe-NH2) |  | 42.84 | 49.15 | half-life (T1/2 in blood (mouse); whole blood): 2.43 h
EGA |  |  |  | eye tissue in which the peptide was found by mass spectrometry [1]: Retina only
H-S*V*T*-NH2 [SEQ ID NO. 10] |  | 39.51 | 24.76 | 
H-S*VT-NH2 [SEQ ID NO. 7] |  |  | 9.50 | 
SVTQAA [SEQ ID NO. 40] |  |  |  | PBL transmigration ([2]; PBL0 37%, FIG. 4): 23%; effect on PBL transmigration ([2]; compared to untreated PBL (PBL0), 20 ng/ml): significant (p<0.01) fall in PBL transmigration
TSV |  |  |  | ALP activity (maturation mineralisation), murine osteoblasts [3]: significantly increased
